≈ marks a conversion by molar mass, not a printed value.

The subject of one experiment is P. falciparum K1. Kind of experiment: Malaria in vitro screening model (3H-hypoxanthine incorporation). The class given is cell-based, Plasmodium falciparum. The essentials:
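Chloroquine/pyrimethamine-resistant P. falciparum K1 in human A+ erythrocytes (0.15% parasitemia, 2.5% hematocrit) was exposed to seven 2-fold compound dilutions in hypoxanthine-free medium at 37 °C, low O2. After 48 h, 0.5 μCi ³H-hypoxanthine was added for 24 h more. IC50 was taken from sigmoidal curves as % of untreated control.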

Experiment [1] concerns Trypanosoma cruzi Tulahuen C2C4 strain. Kind of experiment: Chagas disease in vitro screening model (beta-galactosidase strain in L-6 cells). It counts as cell-based. The essentials:
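L-6 rat myoblasts in RPMI 1640/10% FBS at 37 °C were infected with 5×10^3 lacZ-expressing T. cruzi Tulahuen C2C4 trypomastigotes. CPRG/Nonidet substrate was read at 540 nm, and IC50 came from sigmoidal curves.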

`CC1(C)COC(c2cccc(B(Oc3cccc4cccnc34)c3cccc(C4=NC(C)(C)CO4)c3)c2)=N1` [Compound 13, Bis[3-(4,5-dihydro-4,4-dimethyloxazol-2-yl)phenyl]borinic acid 8-hydroxyquinoline ester]: in the experiment with P. falciparum K1, the “P. falciparum IC50” value turned out to be 2 µg/mL. Besides, the “T. cruzi IC50” value in experiment [1] was determined as 8.7 µg/mL.
As to `COc1ccc(B(Oc2cccc3cccnc23)c2cccc(Cl)c2)cc1OC` [Compound 27, (3-Chlorophenyl)(3,4-dimethoxyphenyl)borinic acid quinolin-8-yl ester], the half-inhibitory concentration (IC50) (commonly the concentration that gives 50% inhibition) in the experiment on P. falciparum K1 (Plasmodium falciparum, K1) worked out at 1.7 µg/mL (≈ 4.21 µM); in experiment [1] (Trypanosoma cruzi, TULAHUEN, L6, read-out: T. cruzi IC50) it was 3.2 µg/mL (≈ 7.93 µM).
